Here are results for one molecule from paper PMC11597817, “Modulation of Multispecific Transporters by Uncaria tomentosa Extract and Its Major Phytoconstituents” (Pharmaceutics, 2024).

Like-named read-outs stand apart in the source and are kept apart here.

For one data set, the target named is T1, ENT4 (Homo sapiens, UniProt Q7RTT9).
T1 construct: expressed in transfected cells; host or cells: HEK293 (lentiviral transduction; cDNA synthesised by GenScript)
In words: Uptake inhibition assay, ENT4-overexpressing HEK293 cells. The settings on record: 100 µM alkaloid. It is filed as cell-based. The protocol:
(§1) The human embryonic kidney 293 (HEK293) cell line was purchased from Invitrogen/ThermoFisher (Waltham, MA, USA). Madin–Darby canine kidney II (MDCKII) wild type cells were obtained from the European Collection of Authenticated Cell Cultures (ECACC catalog no. 00062107). […]
(§2) Plated cells were preincubated with a transport buffer (HBSS) containing 30 or 150 µg/mL of UT extract or 100 µM of isopteropodine, mitraphylline, or uncarine D for 15 min at an appropriate temperature. […] For radiolabeled substrates, accumulation was measured by liquid scintillation counting (MicroBeta Scintillation Counter, PerkinElmer).
(§3) The transporter-mediated uptake and ATP-dependent transport were determined by subtracting the activity of the control cell/transporter abundant-membrane in the presence of AMP from the activity of the transporter-overexpressing cell/transporter-abundant membrane in the presence of ATP. The relative transporter-specific accumulation was expressed as the percent of DMSO activity. […] Confidence intervals (CIs) of 95% were also determined. […]

In another data set the target is T2, OATP1B3 (Homo sapiens, UniProt Q9NPD5).
T2 construct: expressed in transfected cells; host or cells: HEK293 (lentiviral transduction; cDNA synthesised by GenScript)
T2 sequence (Q9NPD5 whole entry): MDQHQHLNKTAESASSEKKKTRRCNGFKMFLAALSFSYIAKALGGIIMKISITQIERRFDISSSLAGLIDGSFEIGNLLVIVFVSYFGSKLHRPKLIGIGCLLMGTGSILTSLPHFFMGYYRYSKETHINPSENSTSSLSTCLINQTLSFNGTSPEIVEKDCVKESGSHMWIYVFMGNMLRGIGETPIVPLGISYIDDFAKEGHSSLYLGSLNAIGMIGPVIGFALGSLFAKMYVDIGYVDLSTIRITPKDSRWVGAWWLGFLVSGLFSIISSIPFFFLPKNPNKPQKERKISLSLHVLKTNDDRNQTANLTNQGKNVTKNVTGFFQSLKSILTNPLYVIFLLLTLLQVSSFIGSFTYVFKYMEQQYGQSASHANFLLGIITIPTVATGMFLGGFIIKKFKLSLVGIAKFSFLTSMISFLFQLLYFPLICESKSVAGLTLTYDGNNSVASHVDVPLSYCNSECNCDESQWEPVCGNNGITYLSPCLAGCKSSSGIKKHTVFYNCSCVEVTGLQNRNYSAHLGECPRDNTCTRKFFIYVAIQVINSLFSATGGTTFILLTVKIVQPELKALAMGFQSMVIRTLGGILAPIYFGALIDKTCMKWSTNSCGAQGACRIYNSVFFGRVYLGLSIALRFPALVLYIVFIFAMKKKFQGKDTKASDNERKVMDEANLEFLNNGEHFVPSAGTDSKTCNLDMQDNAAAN
The data set is described as follows: Uptake inhibition assay, OATP1B3-overexpressing HEK293 cells. It is filed as cell-based. The settings on record: oxindole alkaloids, substrate CCK-8, read-out: IC50 (95% CI of IC50). The protocol: as §1, §2, §3

T1 sequence (Q7RTT9 whole entry): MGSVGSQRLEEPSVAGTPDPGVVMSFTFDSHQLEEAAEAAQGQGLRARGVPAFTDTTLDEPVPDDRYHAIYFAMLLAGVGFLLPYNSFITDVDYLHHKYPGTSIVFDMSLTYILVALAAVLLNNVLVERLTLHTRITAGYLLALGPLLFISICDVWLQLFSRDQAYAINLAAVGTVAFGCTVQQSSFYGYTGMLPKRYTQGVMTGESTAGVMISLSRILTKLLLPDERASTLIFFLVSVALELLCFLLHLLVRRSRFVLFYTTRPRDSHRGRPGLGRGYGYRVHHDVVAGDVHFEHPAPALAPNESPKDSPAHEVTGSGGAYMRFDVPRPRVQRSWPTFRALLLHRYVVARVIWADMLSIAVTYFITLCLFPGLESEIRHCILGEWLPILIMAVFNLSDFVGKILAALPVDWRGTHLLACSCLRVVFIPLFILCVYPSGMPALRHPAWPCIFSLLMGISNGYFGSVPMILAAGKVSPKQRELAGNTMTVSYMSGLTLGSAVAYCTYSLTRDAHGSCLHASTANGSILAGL

Consider `COC(=O)C1=CO[C@@H](C)[C@@H]2CN3CC[C@@]4(C(=O)Nc5ccccc54)[C@@H]3C[C@H]12` [isopteropodine], for which the “inhibitory effect on transporter-specific transport” value on ENT4 is “significantly inhibited”. Also, the IC50 on OATP1B3 (listed as Isopteropodine) and at OATP1B3 was 24.6 µM throughout.

One may read the IC50 as the concentration at which inhibition is half-maximal.
